Data reported in US20150290192A1, “INHIBITORS OF BRUTON'S TYROSINE KINASE” (HOFFMANN-LA ROCHE INC., priority 2012, published 2015).
Read-outs that look alike come from different tables or passages of the source. Marks after values point to notes of the source that are not given here.

How the values were obtained:
[1] = biological target: Bruton's Tyrosine Kinase (Homo sapiens, UniProt Q06187); assay: Bruton's Tyrosine Kinase (BTK) inhibition TR-FRET competition assay; assay type: binding; details: for IC50: inactivated state of BTK, 18-24 h at 14° C.
Chain of Bruton's Tyrosine Kinase (Q06187 whole entry): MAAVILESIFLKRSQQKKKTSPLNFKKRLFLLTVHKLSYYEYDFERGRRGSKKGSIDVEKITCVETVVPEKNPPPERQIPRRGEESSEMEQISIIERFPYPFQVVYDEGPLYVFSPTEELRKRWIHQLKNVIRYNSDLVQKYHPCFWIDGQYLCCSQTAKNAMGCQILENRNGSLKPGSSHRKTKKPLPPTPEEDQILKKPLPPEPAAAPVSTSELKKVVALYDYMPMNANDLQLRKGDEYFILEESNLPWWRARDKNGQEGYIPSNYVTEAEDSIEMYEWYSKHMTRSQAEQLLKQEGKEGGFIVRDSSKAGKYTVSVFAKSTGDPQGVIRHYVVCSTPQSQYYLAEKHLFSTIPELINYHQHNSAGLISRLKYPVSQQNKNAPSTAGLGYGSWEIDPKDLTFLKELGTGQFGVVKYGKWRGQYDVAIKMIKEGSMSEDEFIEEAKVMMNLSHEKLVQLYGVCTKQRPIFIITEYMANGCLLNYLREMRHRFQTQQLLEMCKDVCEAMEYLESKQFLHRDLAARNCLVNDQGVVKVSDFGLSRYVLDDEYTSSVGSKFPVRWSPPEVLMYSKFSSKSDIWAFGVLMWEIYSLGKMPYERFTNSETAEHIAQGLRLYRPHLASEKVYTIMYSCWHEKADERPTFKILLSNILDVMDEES
Protocol: This BTK competition assay measures compound potency (IC50) for the inactivated state of Bruton's Tyrosine Kinase using FRET (Firster/Fluorescence Resonance Energy Transfer) technology. The BTK-Eu complex was incubated on ice one hour prior to use at a starting concentration of 50 nM BTK-Bioease™: 10 nM Eu-streptavidin (Perkin-Elmer Catalog#AD0062). The assay buffer consisted of 20 mM HEPES (pH 7.15), 0.1 mM DTT, 10 mM MgCl2, 0.5 mg/ml BSA with 3% Kinase Stabilizer (Fremont Biosolutions, Catalog #STB-K02). After 1 h, the reaction mixture from above was diluted 10 fold in assay buffer to make 5 nM BTK: InM Eu-Streptavidin complex (donor fluorophore). 18 l of a mixture of 0.11 nM BTK-Eu and 0.11 nM Kinase Tracer 178 (Invitrogen, Catalog #PV5593,) with BTK-Eu alone as no negative control, was then dispensed into 384-well flat bottom plates (Greiner, 784076). Compounds to be tested in assay were prepared as 10× concentrations and serial dilution in half-log increments was performed in DMSO so as to generate 10 point curves. To initiate the FRET reaction, compounds prepared as 10× stock in DMSO was added to the plates and the plates were incubated 18-24 h at 14° C.
After the incubation the plates were read on a BMG Pherastar Fluorescent plate reader (or equivalent) and used to measure the emission energy from the europium donor fluorophore (620 nm emission) and the FRET (665 nm emission). The negative control well values were averaged to obtain the mean minimum. The positive “no inhibitor” control wells were averaged to obtain the mean maximum. Percent of maximal FRET was calculated using following equation:
% max FRET=100×[(FSRcmpd−FSRmean min)/(FSRmean max−FSRmean min)]
where FSR=FRET Signal ratio. % Max FRET curves were plotted in Activity Base (Excel) and the IC50(%), hill slope, z′ and % CV were determined. The mean IC50 and standard deviation will be derived from duplicate curves (singlet inhibition curves from two independent dilutions) using Microsoft Excel.

[2] = test system: OVA sensitized and challenged mice, allergen-induced bronchoconstriction; assay: Ovalbumin-induced allergic airway disease: allergen-induced bronchoconstriction; details: Intranasal
[3] = Pharmacokinetics in dog; assay type: in vivo; details: for CL / clearance: 1.0 mg/kg (iv); for Oral Bioavailability / bioavailability: 1.0 (iv), 1.0 (po) mg/kg; for clearance / bioavailability: plasma; for bioavailability: 1 mg/kg
[4] = test system: human B cells (BCR activation); assay: Human B cell antibody production after BCR activation; assay type: cell-based; details: Homo sapiens, B-cell, 240 h, 10 days culture, N = 3 donors
Protocol: Human total B cells were enriched with RosetteSep human B cell enrichment cocktail (#28921, Vancouver, BC) from buffy coat leukocyte packs (New York Blood Center) following manufacturer's protocol. Enriched B cell purity (around 80%) was checked by FACS with CD19+ staining. B cells were suspended (0.1 million cells/well/100 μl) in RPMI-1640 based conditional medium (50 ng/ml IL-2, 50 ng/ml IL-10, and […] anti-IgD for the activation of B cells to produce IgG/IgM; 10 ng/ml IL-4, 10 ng/ml IL-10, 25 ng/ml IL-21, and […] anti-CD40 for the activation of B cells to produce IgE) together with Compound 1 (1 nM-10 μM). Cells were cultured for 10 days (for IgG/IgM production) or 14 days (for IgE production) at 37° C. Culture supernatants were collected for IgM, IgG, and IgE analysis following Bethyl Laboratory's protocol (#E80-104, #E80-100, #E80-108, Montgomery, Tex.).

[5] = biological target: Btk kinase (Homo sapiens, UniProt Q06187); assay: Btk Biacore binding assay; details: for off rate: Biacore; for kon: read-out: Biacore Ka
Chain of Btk kinase (Q06187 whole entry): as above
Protocol: Analyses were performed on a Biacore T-100. Btk kinase was avi-tagged and co-expressed in baculovirus with biotin ligase to generate single site biotinylated Btk (Avidity, LLC). Biotinylated target was captured on Biacore streptavidin sensor chips (Series S Sensor Chip SA) at densities of ˜10000 resonance units (1 ru˜1 pg protein/mm2). […] Compounds were injected for 100 seconds association time and dissociation was followed for 20 min.

[6] = test system: human mast cells (FCεRI activation); assay: Human mast cell activation, mediator release after FCεRI activation; assay type: cell-based; details: N = 3 donors
Protocol: One million human cord blood derived CD34+ hematopoietic stem cells (HSCs) from different donors (AllCells #CB008F-S, Emeryville, Calif.) were cultured for eight weeks in a serum-free complete medium (StemPro-34 with supplements; Invitrogen, Carlsbad, Calif.), with recombinant h-SCF (100 ng/ml) and h-IL6 (50 ng/ml). During the first week of culturing, recombinant h-IL3 (10 ng/ml) was also included to support HSCs differentiation. After 8 weeks of culture, cells were stimulated with recombinant h-IL-4 (10 ng/ml) for 5 days. Confirmation of the mast cell differentiation process was routinely done by FACS to check for c-kit and FcsRI expression; differentiated cells were routinely more than 90% c-kit positive, FceRI positive. Differentiated mast cells were sensitized with […] anti-NP IgE (Serotec, Raleigh, N.C.) overnight at 37° C. Cells were washed and then treated with Compound 1 for 1 hour at 37° C. After treatment, cells were cross-linked with […] NP(30)-BSA (Biosearch Technologies, Novato Calif.) for 30 minutes (for histamine and lipid mediator assessment) or overnight (for cytokine assessment). Culture supernatants were collected and assayed for histamine (Oxford Biomedical Research, Rochester Hills, Mich.), PGD2 and LTC4 (Cayman Chemical Company, Ann Arbor Mich.), and IL-5 and IL-13 (Bio-Rad Bio-Plex Pro cytokine quantification kit) release as per kits' instructions. Compound 1, Compound 2 and Compound 3 reduced the release of these mediators into the supernatant in a concentration dependent manner up to 100% efficacy and the IC50 values are reported in Table 2.

[7] = Pharmacokinetics in rat; assay type: in vivo; details: for CL / clearance: 0.5 mg/kg (iv); for Oral Bioavailability / bioavailability: 0.5 (iv), 2 (po) mg/kg; for clearance / bioavailability: plasma; for bioavailability: 2 mg/kg
[8] = delivered dose 0.3 mg/kg, deposited dose 0.3 mg/kg
[9] = delivered dose 1.0 mg/kg, deposited dose 1.0 mg/kg
[10] = delivered dose 3.0 mg/kg, deposited dose 3.0 mg/kg
[11] = read-out: IC50 Histamine release

| Btk inhibitor potency (FRET) [1] | IC50 [1] [nM] | IC50 ([4]; read-out: IC50 IgG production) [nM] | IC50 ([4]; read-out: IC50 IgM production) [nM] | Kd [5] [nM] | off rate [5] | kon [5] [M⁻¹ s⁻¹] | IC50 ([6]; read-out: IC50 1L-13 release) [nM] | IC50 ([6]; read-out: IC50 GM-CSF release) [nM] | IC50 [6, 11] [nM] | IC50 ([6]; read-out: IC50 IL-5 release) [nM] | IC50 ([6]; read-out: IC50 PGD2 release) [nM] | SMILES | % reduction in airway resistance (R) [2, 8] | % reduction in airway resistance (R) [2, 9] | % reduction in airway resistance (R) [2, 10] | also measured |
| --- | --- | --- | --- | --- | --- | --- | --- | --- | --- | --- | --- | --- | --- | --- | --- | --- |
| very potent | 0.2 | 3.17 | 4.76 | 0.119 | very slow | 1.07e+06 | 97.4 | 28.6 | 21.7 | 86.7 | 5.31 | COCCNCc1ccc(Nc2cc(-c3cccc(N4CCc5cc(C(C)(C)C)ccc5C4=O)c3CO)cn(C)c2=O)nc1 [Compound 3, 6-tert-Butyl-2-[2-hydroxymethyl-3-(5-{5-[(2-methoxy-ethylamino)-methyl]-pyridin-2-ylamino}-1-methyl-6-oxo-1,6-dihydro-pyridin-3-yl)-phenyl]-3,4-dihydro-2H-isoquinolin-1-one] | 77* % | 83* % | 93* % | CL ([3]; Table 9): high; Oral Bioavailability ([3]; Table 9): low; clearance ([3]; Table 9): 31.4 mL/min/kg; bioavailability ([3]; Table 9): 8%; CL ([7]; Table 9): high; Oral Bioavailability ([7]; Table 9): low; clearance ([7]; Table 9): 111 mL/min/kg; bioavailability ([7]; Table 9): 7% |
| very potent | 1.1 | 9.26 | 3.28 | 1.48 | very slow | 453000 | 91.9 | 26 | 9.6 | 13.2 | 3.09 | Cn1nc(Nc2cc(-c3cccc(-n4ccc5cc(C(C)(C)C#N)cc(F)c5c4=O)c3CO)nn(C)c2=O)cc1CN1CCC1 [Compound 2, 2-(2-{3-[5-(5-Azetidin-1-ylmethyl-1-methyl-1H-pyrazol-3-ylamino)-1-methyl-6-oxo-1,6-dihydro-pyridazin-3-yl]-2-hydroxymethyl-phenyl}-8-fluoro-1-oxo-1,2-dihydro-isoquinolin-6-yl)-2-methyl-propionitrile] | 53% | 64* % | 105* % | CL ([3]; Table 8): high; Oral Bioavailability ([3]; Table 8): low; clearance ([3]; Table 8): 35 mL/min/kg; bioavailability ([3]; Table 8): 4%; CL ([7]; Table 8): high; Oral Bioavailability ([7]; Table 8): low; clearance ([7]; Table 8): 84.9 mL/min/kg; bioavailability ([7]; Table 8): < 2% |
